# In US7138543B2, “Thiolalkyl benzoic acid derivatives” (Guilford Pharmaceuticals Inc., priority 2001, dated 2006):
# Key:
# BB/W diabetic rats = test: Nerve conduction velocity in BB/W model; assay type: in vivo; details: 10 mg/kg daily; vs diabetic vehicle controls, from 8 weeks to six months, FIG. 12
# Excerpt: Male BB/W rats (BRI, Mass) spontaneously develop a cell mediated autoimmune destruction of pancreatic B cells, resulting in onset of insulin-dependent (Type I) diabetes (Awata, Guberski, Endocrinology (1995) 136(12):5731–5). […] This renders them valuable for experimental trials of new compounds for future treatments of this major disorder. In the present study, Compound A and Compound D were examined for their ability to alter the progression of diabetic neuropathy. The rats received daily injection of Compound A or Compound D (10 mg/kg i.p.) or vehicle, starting at the onset of diabetes (hyperglycemia) and up to 6 months thereafter. Another group of non-diabetic rats also receiving vehicle were tested. All animals were continuously monitored for body weight, urine volume, blood sugar and glycated haemoglobin. In the first month of the study, all animals were tested for thermal nociception in a Hargreaves apparatus, weekly. After the first month this was done biweekly and then monthly. […]
# Nerve conduction velocity was also measured every two weeks through the first eight weeks of treatment and every month thereafter through to the six months of treatment (see De Koning et al., Peptides, Vol. 8, No. 3, pp. 415–22 (1987) for a description of the experimental method). […]
# [1] = test system: rats with unilaterally transected optic nerve; test: Optic nerve transection (optic nerve fiber counting); assay type: in vivo, Rattus norvegicus; details: for FIBER NUMBER: 10 mg/kg daily intraperitoneal
# Protocol: All experiments complied with the Association for Research in Vision and Ophthalmology Statement for the Use of Animals in Ophthalmic and Vision Research. 82 male Brown Norway rats (Rattus norvegicus), each weighing approximately 250 gm, were treated using procedures approved by the Animal Care Committee of the Johns Hopkins University School of Medicine. The rats were housed with a 12 hour light/12 hour dark cycle and fed ad libitum.
# OPTIC NERVE TRANSECTION: The optic nerve was transected unilaterally in 26 rats under intraperitoneal pentobarbital anesthesia. The conjunctiva was opened with scissors and the optic nerve exposed by traction on extraocular muscles. The transection was performed with microscissors 5 mm posterior to the globe, with specific attention to avoidance of injury to major ocular blood vessels. Immediately after transection, the retina was examined ophthalmoscopically to assure that the retinal arterial blood supply was not disrupted. The conjunctiva was closed with absorbable suture and the eye dressed with antibiotic ointment. Beginning on the day of transection, the rats were treated daily with intraperitoneal injections of either a vehicle (9 rats with 50 mM HEPES-buffered saline) or a NAALADase inhibitor (8 rats with 10 mg/kg of Compound A and 9 rats with 10 mg/kg of Compound B). 5 saline treated rats, 3 Compound A treated rats, and 4 Compound B treated rats were sacrificed at 2 weeks, and the remaining rats at 4 weeks, after transection.
# OPTIC NERVE COUNTING: The rats were sacrificed by exsanguination under deep pentobarbital anesthesia. They were perfused through the heart with 2% paraformaldehyde/2% glutaraldehyde in 0.1 M phosphate buffer, pH 7.2, and the eyes with attached optic nerves were removed. A cross-section of the optic nerve from both experimental (glaucoma or transection) and control eyes was removed 1.5 mm posterior to the globe, 1 mm in thickness, and post-fixed in 2% osmium tetroxide in buffer. These were processed into epoxy resin, sectioned at 1 micron and stained with toluidine blue.
# The area of the optic nerve cross-section was measured by outlining its outer border at 10× magnification on an image analysis system (Universal Imaging Corp., Westchester, Pa.) with Synsys digital camera and Metamorph software. Three area measurements were taken and the mean value was determined. To measure the density and fiber diameter distributions, images were captured with a 100× phase contrast objective from 10 different areas of each nerve. These were edited to eliminate non-neural objects and the size of each axon internal to the myelin sheath (its minimum diameter) and the density of axons/square mm were calculated for each image and nerve. The mean density was multiplied by total nerve area to yield fiber number for each nerve. The total fiber number in glaucoma or transection nerves was compared to the normal, fellow eye of each rat to yield a percent loss value. The number of axons counted among the 10 images was an approximately 20% sample of the 80–90,000 axons in normal rat nerves. The person measuring axon number was masked to the protocol conducted on the nerves.
# transgenic G1H mice = test: Onset of ALS in transgenic mice model of FALS; assay type: in vivo; details: for DISEASE ONSET: 50 mg/kg daily intraperitoneal
# Protocol: Effect of NAALADase Inhibitors on Onset of ALS
# The effect of NAALADase inhibitors on the onset of ALS was tested using the transgenic mice model of familial amyotrophic lateral sclerosis (“FALS”), which is detailed in Gurney, M., Annals of Neurology (1996) 39:147–157, and otherwise well known in the art. One month old transgenic G1H mice were treated with daily intraperitoneal injections of a vehicle (50 mM HEPES-buffered saline) or a NAALADase inhibitor (50 mg/kg Compound A). Clinical symptoms of the mice were monitored daily. The onset of clinical disease was scored by examining each mouse for its shaking of limbs when suspended in the air by its tail, cross spread of spinal reflexes, hindlimb paralysis, body weight and wheel running activity.
# [2] = 2 weeks survival after transection
# [3] = 4 weeks survival after transection
smiles,measurement,setting,value
O=C(O)CCC(CP(=O)(O)Cc1c(F)c(F)c(F)c(F)c1F)C(=O)O (stereo not shown) [Compound A],nerve conduction velocity,BB/W diabetic rats,significantly less severe nerve conduction deficits
same,remaining axons relative to the saline-treated rats,[1]; 2 weeks after transection,3 times
same,PERCENT DIFFERENCE in fiber number,[1]; [2],65.3 ± 30.9%
same,FIBER NUMBER,[1]; [2],"26,426 ± 23,025"
same,PERCENT DIFFERENCE in fiber number,[1]; [3],82.4 ± 8.9%
same,FIBER NUMBER,[1]; [3],"13,599 ± 7,868"
same,DIFFERENCE in disease onset vs vehicle,transgenic G1H mice; Study 1,32
same,DISEASE ONSET,transgenic G1H mice; Study 1,221 days
same,DIFFERENCE in disease onset vs vehicle,transgenic G1H mice; Study 2,25
same,DISEASE ONSET,transgenic G1H mice; Study 2,166 days
